The values below come from patent publication US20170190691A1, “NOVEL 5-ACYLSULFANYL-HISTIDINE COMPOUNDS AS PRECURSORS OF THE CORRESPONDING 5-SULFANYLHISTIDINES AND THEIR DISULFIDES” (TETRAGEDRON, priority 2014, published 2017).

Assay type in all cases: physicochemical
Series [1] in a line: Analytical monitoring by 1H NMR and HPLC-ELSD of the hydrolysis of compound 3 into compound 26 in the presence of a thiol (3-mercaptopropionic acid), D2O, 40° C. The note with it: 5 equivalents 3-mercaptopropionic acid. The method, then: b) Analytical monitoring by ^1H NMR of the hydrolysis of the 5-acylsulfanyl compound 3 into the compound L-5-sulfanyl-α,N,N,N(trimethyl)-histidine (Compound 26) in the presence of a thiol
Compound 3 is prepared and purified by column as described in Example 5. 100 mg (0.33 mmoles, 1 eq.) of compound 3 are dissolved in 2.4 mL of D2O. 172 mg of 3-mercaptopropionic acid (142 μL, 5 equivalents) are added, and the solution is heated at 40° C. The conversion is monitored by ^1H NMR and by HPLC-ELSD. The yield of hydrolysis of compound 3 is 90% after 3 h (monitored by ^1H NMR). Compound 26 is formed after 3 h 30 with a yield of 97% (HPLC-ELSD).

Series [2] can be described thus: Hydrolysis of compound 3 in water at 90° C. in air, monitored by HPLC. As to conditions: after 7 h. The method, then: c) Preparation of the compound L-5-sulfanyl-α,N,N,N(trimethyl)-histidine (compound 26) by hydrolysis of the 5-acylsulfanyl compound 3
Compound 3 is prepared and purified by column as described in Example 5. 170 mg (0.6 mmoles) of compound 3 are dissolved in 10 mL of water, and the solution is heated at 90° C. in air for 7 h. The conversion is monitored by HPLC. The hydrolysis of compound 3 is complete after 7 h. The solution is evaporated to dryness. The residue is dissolved in a mixture of 5 mL of methanol and 93 mg (0.6 mmol) of dithiothreitol. After stirring for 4 h under an inert atmosphere, 2 mL of ethanol are added. A precipitate forms immediately, which is filtered and washed with ethanol (2×2 mL), then with ethyl ether (2×2 mL). After drying, 104 mg (72%) of L-5-sulfanyl-α,N,N,N(trimethyl)-histidine are obtained in the form of a beige powder.

Series [3] in a line: Analytical monitoring by HPLC of the hydrolysis of compound 3 and oxidation in situ into compound 27, aqueous fraction at 40° C. The note with it: water; for % hydrolysis: HPLC. The protocol:
e) Analytical monitoring by HPLC of the hydrolysis of the 5-acylsulfanyl compound 3 and oxidation in situ into compound 27
Compound 3 is prepared and purified by column as described in Example 5, using an ethyl acetate/ethanol gradient, followed by elution with water. The aqueous fraction containing the pure compound 3 is placed in a water bath at 40° C. and heated under stirring for two days. Samples are collected every hour, and the mixture is analyzed by HPLC.

Series [4] is described as follows: Analytical monitoring by 1H NMR of the hydrolysis of compound 3 and oxidation in situ into compound 27, D2O at ambient temperature. The note with it: for % hydrolysis: 1H NMR. The protocol: f) Analytical monitoring by ^1H NMR of the hydrolysis of the 5-acylsulfanyl compound 3 and oxidation in situ into compound 27
Compound 3 is prepared and purified by column as described in Example 5. 30 mg of compound 3 are dissolved in 600 μL of D2O, the solution is transferred to an NMR tube, which is stored at ambient temperature. The conversion is monitored by ^1H NMR.

For the molecule `CC(=O)Sc1nc[nH]c1C[C@@H](C(=O)[O-])[N+](C)(C)C` [Compound 3, L-5-acetylsulfanyl-α,N,N,N(trimethyl)-histidine], in series [1] (after 3 h 30, HPLC-ELSD), the “yield of compound 26 formed from compound 3” value turned out to be 97%. Besides, the “yield of hydrolysis of compound 3” value in series [1] (after 3 h, 1H NMR) is 90%. In addition, the “hydrolysis of compound 3 (extent, in words)” value in series [2] is “complete”; in series [3] (after 2 days) it was “nearly complete”; in series [4] (after 2 days) it was “nearly complete”. The “yield of compound 27 from hydrolysis and in situ oxidation of compound 3” value in series [3] (after 2 days) was 80%. The “% hydrolysis” value in series [3] (t = 0 h) stood at 0%; in series [3] (t = 2 j) it was 95%; in series [3] (t = 2 h) it was 7%; in series [3] (t = 4 h), 21%; in series [3] (t = 6 h) it was 38%; in series [3] (t = 8 h), 60%. Besides, the “% hydrolysis” value was 85% in series [3] (t = 18 h); 0% in series [4] (t = 0 h); 86% in series [4] (t = 2 j); 19% in series [4] (t = 2 h); 26% in series [4] (t = 10 h).
